In patent publication US12202850B2, “Cyclobutyl purine derivative or salt thereof” (FUJIFILM Corporation, priority 2018, dated 2025) one finds EC50 data, which are given here for 10 compounds.

Each structure is given as a SMILES string.

The first assay deals with adenovirus type 6 (ADV6). The assay can be described thus: Evaluation of anti-adenovirus activity (CRL-11516 cells infected with ADV6, anti-hexon staining). It counts as cell-based. As to conditions: Human mastadenovirus C, 48 h, read-out: Anti-AdV activity EC50.
Regarding `COC(=O)[C@H](C)NP(=O)(OC[C@H]1C[C@@H](n2cnc3c(OC)nc(N)nc32)C1)Oc1ccc(Br)cc1` (stereo partly drawn) [Example 1-1, methyl (((cis-3-(2-amino-6-methoxy-9H-purin-9-yl)cyclobutyl)methoxy)(4-bromophenoxy)phosphoryl)-L-alaninate], the EC50 was below 0.1 µM. Still for that read-out and setting: under `COC(=O)[C@H](C)NP(=O)(OC[C@H]1C[C@@H](n2cnc3c(OC)nc(N)nc32)C1)Oc1cccc2ccccc12` (stereo partly drawn) [Example 1-2-1, methyl (((cis-3-(2-amino-6-methoxy-9H-purin-9-yl)cyclobutyl)methoxy)(naphthalen-1-yloxy)phosphoryl)-L-alaninate] stands 0.1 to 1 µM.

`COc1nc(N)nc2c1ncn2[C@H]1C[C@@H](COP(=O)(OCCSC(=O)C(C)(C)C)Oc2ccccc2)C1` (stereo partly drawn) [Example 3-1, S-(2-((((cis-3-(2-amino-6-methoxy-9H-purin-9-yl)cyclobutyl)methoxy)(phenoxy)phosphoryl)oxy)ethyl)2,2-dimethylpropanethioate]: the EC50 fell in the range of 1 to 10 µM.

`COc1nc(N)nc2c1ncn2[C@H]1C[C@@H](COP(=O)(N[C@@H](C)C(=O)OCc2ccccc2)Oc2ccccc2)C1` (stereo partly drawn) [Example 3-2-1, Benzyl (((cis-3-(2-amino-6-methoxy-9H-purin-9-yl)cyclobutyl)methoxy) (phenoxy)phosphoryl)-L-alaninate]: the 50% effective concentration (EC50) is 0.1 to 1 µM. On to `COC(=O)[C@H](C)NP(=O)(OC[C@H]1C[C@@H](n2cnc3c(OC)nc(N)nc32)C1)Oc1ccccc1` (stereo partly drawn) [Example 3-2-2, Methyl (((cis-3-(2-amino-6-methoxy-9H-purin-9-yl)cyclobutyl)methoxy)(phenoxy)phosphoryl)-L-alaninate], for which the EC50 fell in the range of 0.1 to 1 µM. Consider `COc1nc(N)nc2c1ncn2[C@H]1C[C@@H](COP(=O)(N[C@@H](C)C(=O)OC(C)C)Oc2ccccc2)C1` (stereo partly drawn) [Example 3-2-4, Isopropyl (((cis-3-(2-amino-6-methoxy-9H-purin-9-yl)cyclobutyl)methoxy) (phenoxy)phosphoryl)-L-alaninate], for which the EC50 lay in the range of 1 to 10 µM. With `COC(=O)[C@H](C)NP(=O)(OC[C@H]1C[C@@H](n2cnc3c(OC)nc(N)nc32)C1)Oc1ccc(Cl)cc1` (stereo partly drawn) [Example 8-2-1, Methyl (((cis-3-(2-amino-6-methoxy-9H-purin-9-yl)cyclobutyl)methoxy)(4-chlorophenoxy)phosphoryl)-L-alaninate], the EC50 was below 0.1 µM.

Still in this assay, the particulars now being: Human mastadenovirus C; CRL-11516 cells, ADV6 (50TCID50), 48 hours; 50% reduction of dark brown-stained cells; read-out: Anti-AdV activity EC50.
Regarding `Nc1nc2c(ncn2[C@H]2C[C@@H](CO)C2)c(=O)[nH]1` [Comparative Example 1, 2-Amino-9-(cis-3-(hydroxymethyl)cyclobutyl)-1,9-dihydro-6H-purin-6-one, reference compound], the EC50 was above 10 µM.

The assay is the same for the next values; noted with them: read-out: Anti-AdV activity EC50.
With `COC(=O)[C@H](C)NP(=O)(OC[C@H]1C[C@@H](n2cnc3c(OC)nc(N)nc32)C1)Oc1ccc(Cl)cc1` (stereo partly drawn) [Example 1-2-2, Methyl (((cis-3-(2-amino-6-methoxy-9H-purin-9-yl)cyclobutyl)methoxy)(4-chloro-phenoxy)phosphoryl)-L-alaninate], the EC50 is below 0.1 µM.

On to `COC(=O)[C@H](C)NP(=O)(OC[C@H]1C[C@@H](n2cnc3c(OC)nc(N)nc32)C1)Oc1ccc(Cl)cc1` (stereo partly drawn) [Example 8-2-2, Methyl (((cis-3-(2-amino-6-methoxy-9H-purin-9-yl)cyclobutyl)methoxy)(4-chlorophenoxy)phosphoryl)-L-alaninate], for which the EC50 is 0.1 to 1 µM.
